Series [1] in a line: Antioxidative capacity: inhibition of the peroxidation of lipids. It is filed as biochemical. As to conditions: pure polyphenols isolated from wood materials.
Series [2] in a line: Peroxide radicals capturing capacity. It is filed as biochemical. The conditions noted are these: pure polyphenols isolated from wood material; per gram.
For series [3] the following is noted: pure polyphenols; footnote 1: Willför et al., J. Agric. Food. Chem., 51, 7600-7606 (2003); cited from earlier work.
For series [4] the following is noted: pure polyphenols; footnote 1: Willför et al., J. Agric. Food. Chem, 51. 26 (2003); cited from earlier work.
The subject of series [5] is human keratinocyte cells. The procedure: The composition of the individual compounds included in the compound mixture contained by the samples was in accordance with Table 3B. The cytotoxicity of the sample extracts and powders for human keratinocyte cells was measured. The employed measure of cytotoxicity was the total protein quantity created by the samples, when the samples were incubated together with human keratinocyte cells for a certain incubation time (24 h). For each sample, there was searched a limit value (EC20), by which 20% of the cultivated cells died.

≈ marks a conversion by molar mass, not a printed value. Like-named read-outs stand apart in the source and are kept apart here.

A word on the EC50: it is the concentration that produces a half-maximal response.

Regarding `O=C1C[C@@H](c2ccccc2)Oc2cc(O)cc(O)c21` [Pinosembrin], in series [1], the “EC50” value came out at 1135 µg/L (≈ 4.43 µM). This compound also gave a capturing capacity in series [2] of 0.49 mmol/g.
Turning to `Oc1ccc([C@H]2Oc3c(ccc(O)c3O)[C@@H](O)[C@H]2O)cc1` [Teracasidine], in series [1], the “EC50” value is listed as 50 µg/L (≈ 0.172 µM). Moreover, in series [2], the capturing capacity amounted to 7.8 mmol/g.
On to `COc1cc(C[C@@H](CO)[C@H](CO)Cc2ccc(O)c(OC)c2)ccc1O` [Secoisolariciresinol], for which the capturing capacity in series [3] is 8.5 mmol/g. The “EC50” value in series [4] is on record as 37 µg/L (≈ 0.102 µM).
Consider `Oc1cc(O)cc(/C=C/c2ccccc2)c1` [Pinosylvin], for which the “EC50” value in series [1] is listed as 50 µg/L (≈ 0.236 µM). Also, the capturing capacity in series [2] worked out at 0.78 mmol/g.
Regarding `COc1cc(C[C@H]2COC(=O)[C@@H]2Cc2ccc(O)c(OC)c2)ccc1O` [Matairesinol], the capturing capacity in series [3] is reported as 2.9 mmol/g. Also, the “EC50” value in series [4] is reported as 99 µg/L (≈ 0.276 µM).
`Oc1ccc([C@H]2Oc3c(ccc(O)c3O)[C@@H](O)[C@H]2O)cc1O` [Melacasidine]: the “EC50” value in series [1] is on record as 36 µg/L (≈ 0.118 µM). The capturing capacity in series [2] came out at 20 mmol/g.
Taken in the same sequence, the figures for Pinoresinol were 20 µg/L and 7.8 mmol/g.
On to `Cc1cc(C(C)(C)C)c(O)c(C(C)(C)C)c1` [BTH, butylated hydroxytoluene], for which the “times more cytotoxic with respect to HMR extract mixtures” value in series [5] (from Table 1) is 50-100 times. In series [5] (human, 24 h), the “EC20 ppm 24 h” value amounted to 5.50 ppm.
Regarding `O=C1c2c(O)cc(O)cc2O[C@H](c2ccc(O)cc2)[C@H]1O` [Dihydrokaempferol], the “EC50” value in series [1] amounted to 488 µg/L (≈ 1.69 µM). In addition, the capturing capacity in series [2] came to 0.78 mmol/g.
As for `COc1cc(CC2COC(=O)C2(O)Cc2ccc(O)c(OC)c2)ccc1O` (stereo not shown) [Nortrachelogenin], the capturing capacity in series [3] was 5.9 mmol/g. In addition, the “EC50” value in series [4] is on record as 53 µg/L (≈ 0.142 µM).
In the case of `COc1cc(C[C@H]2CO[C@H](c3ccc(O)c(OC)c3)[C@H]2CO)ccc1O` [Lariciresinol], the capturing capacity in series [3] is 2.7 mmol/g. For the same compound, the “EC50” value in series [4] is recorded as 126 µg/L (≈ 0.35 µM).
With `COc1cc([C@H]2c3cc(O)c(OC)cc3C[C@@H](CO)[C@@H]2CO)ccc1O` [Cyclolariciresinol], the “EC50” value in series [1] came to 17 µg/L (≈ 0.0472 µM). Further, the capturing capacity in series [2] worked out at 12 mmol/g.
As to `COc1cc(C[C@H]2C(=O)OC[C@@H]2[C@H](O)c2ccc(O)c(OC)c2)ccc1O` [Hydroxymatairesinol], in series [3], the capturing capacity is 5.6 mmol/g. Moreover, the “EC50” value in series [4] was 58 µg/L (≈ 0.155 µM).
As for `O=C1c2c(O)cc(O)cc2O[C@H](c2ccc(O)c(O)c2)[C@H]1O` [Taxifolin], the capturing capacity in series [3] is on record as 16 mmol/g. In addition, in series [4], the half-maximal effective concentration (EC50) is listed as 46 µg/L (≈ 0.151 µM).

Source of the values: patent EP2252154B1, “METHOD FOR MINIMIZING THE CYTOTOXICITY OF THE EFFECTIVE AGENT IN A COMPOSITION THAT IS ADMINISTERED TO A MAMMAL OR GETS INTO CONTACT WITH A MAMMAL” (Oy Granula AB LTD, priority 2008, dated 2009).
